The record followed here is publication PMC5321639, “Design and pharmacodynamics of recombinant NZ2114 histidine mutants with improved activity against methicillin-resistant Staphylococcus aureus” (AMB Express, 2017).

Assay [1] relates to S. aureus ATCC43300. The assay is described as follows: Postantibiotic effect (PAE). It is filed as cell-based, Staphylococcus aureus. Particulars: 2 h exposure at 37 °C, 1 × 10^8 CFU/ml, drug removed by 1:10^3 dilution, mean ± SD, n = 3. Here is the method:
After 2 h, the drug was removed by diluting 1:10^3 into the MHB and incubated at 37 °C, 250 rpm. The sample was taken to plate counting every 1 h until the bacterial cultures become turbid. The PAE was calculated by the following formula: PAE = T − C, where T is the time needed for the count of CFU in the test culture to increase 1 log10 (10-fold) above the 0 h and C is the time needed for the count of CFU in the untreated control culture to increase 1 log10 above the 0 h (Giguère et al. [2012]).

In assay [2] the test system is S. aureus ATCC43300. The assay is described as follows: Effect of temperature on activity (MIC). It is filed as cell-based, Staphylococcus aureus. Particulars: then MIC assay. Here is the method: (§1) The peptide solutions were diluted twofold with the range of final concentrations were 0.015–32 µg/ml (0.003–7.273 µM) for purified H1, H2, H3, H6, and H8. The test strains were grown in MHB medium at 37 °C to an OD600 of 0.4 and diluted to 1 × 10^5 CFU/ml. The 10 µl peptide and 90 µl cell suspension were added into each well. All assays were performed in triplicate. The antimicrobial activity of NZ2114 and vancomycin were tested as positive controls. The plates were incubated at 37 °C for 18–24 h. MIC was defined as the lowest peptide concentration of ones at which there was no visible growth (Tian et al. [2009]).
The effect of pH, temperature, NaCl concentration and proteinase on the activity of peptides was evaluated. Peptides were diluted twofold, then adjusted to a pH range from 2.0 to 10.0 and incubated at 37 °C for 4 h. The thermal stability of purified peptides was determined after 1-h incubation of peptides at 4, 20, 40, 60, 80 and 100 °C in deionized water, respectively. Aliquots of peptides were incubated in various proteinases solutions [pepsin (pH 2.0), trypsin (pH 8.0), proteinase K (pH 7.0)] at a ratio of 1:10, w/w (proteinase: peptide) at 37 °C for 3 h. For the ion stability, peptides were incubated in 50, 100, 200, 300, 400, 500 mM sodium chloride solutions, respectively. Other methods and conditions were prepared as the MIC assay described above (Li et al. [2015]; Qu et al. [2016]).

In a further assay the test system is S. pneumoniae CVCC2350. The assay is described as follows: MIC assay. Particulars: MHB, 1 × 10^5 CFU/ml, 37 °C, 18–24 h, triplicate. Format: cell-based, Streptococcus pneumoniae. Here is the method:
as §1

The test system of a further assay is S. choleraesuis CVCC503. The experiment in a line: MIC assay. Format: cell-based. Particulars: MHB, 1 × 10^5 CFU/ml, 37 °C, 18–24 h, triplicate. Here is the method: as §1
Another assay deals with S. pullorum CVCC1789. The experiment in a line: MIC assay. Format: cell-based. Particulars: MHB, 1 × 10^5 CFU/ml, 37 °C, 18–24 h, triplicate. Here is the method:
as §1

For the next assay, the system named is S. typhimurium ATCC14028. The experiment in a line: MIC assay. Format: cell-based. The settings on record: MHB, 1 × 10^5 CFU/ml, 37 °C, 18–24 h, triplicate. Here is the method:
as §1

For the next assay, the system named is S. aureus ATCC25923. The assay is described as follows: MIC assay. It is filed as cell-based, Staphylococcus aureus. Particulars: MHB, 1 × 10^5 CFU/ml, 37 °C, 18–24 h, no visible growth, triplicate. Here is the method: as §1
A further assay deals with S. aureus ATCC6538. The experiment in a line: MIC assay. The settings on record: MHB, 1 × 10^5 CFU/ml, 37 °C, 18–24 h, no visible growth, triplicate. Format: cell-based, Staphylococcus aureus. Here is the method:
as §1

Values after ≈ are worked out from the molar mass of the structure shown. Values joined by “and” are separate entries in the source; they are usually repeats but may differ in a detail not shown here. Identical values can stand only once. Where a SMILES comes first, the peptide text is derived from it. Bridges are numbered along the chain shown (N, C = ends). A value given as a limit tells only on which side of the number the result lay.

For orientation: MIC means the lowest concentration found to suppress growth. Read a high MIC as weaker potency. As for `CC[C@H](C)[C@@H]1NC(=O)[C@H](CO)NC(=O)[C@H](CCCCN)NC(=O)[C@@H]2CSSC[C@@H](C(=O)N[C@@H](Cc3ccc(O)cc3)C(=O)O)NC(=O)[C@H](CCCCN)NC(=O)[C@@H]3CSSC[C@H](NC(=O)[C@H](CCCNC(=N)N)NC(=O)[C@H](CC(C)C)NC(=O)[C@H](CC(=O)O)NC(=O)[C@H](CC(=O)O)NC(=O)[C@H](CCC(=O)O)NC(=O)[C@H](CC(N)=O)NC(=O)[C@H](Cc4c[nH]c5ccccc45)NC(=O)[C@@H]4CCCN4C(=O)CNC(=O)[C@H](CC(N)=O)NC(=O)[C@@H](NC(=O)CNC(=O)[C@H](Cc4ccccc4)NC(=O)CN)CSSC[C@H](NC(=O)[C@H](Cc4ccc(O)cc4)NC(=O)CNC(=O)CNC(=O)[C@H](CCCCN)NC(=O)[C@H](Cc4ccc(O)cc4)NC(=O)CNC(=O)[C@H](CCCCN)NC1=O)C(=O)N[C@@H](C)C(=O)N[C@@H](CCCCN)C(=O)NCC(=O)NCC(=O)N[C@@H](Cc1ccccc1)C(=O)N[C@@H](C(C)C)C(=O)N3)C(=O)N[C@@H](CCCNC(=N)N)C(=O)N[C@@H](CC(N)=O)C(=O)N[C@@H](Cc1c[nH]cn1)C(=O)N2` [H2] (H-GFGCNGPWNEDDLRCRNHCKSIKGYKGGYCAKGGFVCKCY-OH; disulfide 4-30, 15-37, 19-39 (inferred); N-terminus and C-terminus assumed), the PAE in the assay with S. aureus ATCC43300 [1] (1× MIC) was 0.63 h and 0.63 ± 0.13 h; with S. aureus ATCC43300 [1] (2× MIC), 1.75 ± 0.04 h. The “MIC after incubation at 4 °C” value in the assay with S. aureus ATCC43300 [2] (1 h at 4 °C in deionized water) stood at 0.114 µM (≈ 0.505 µg/mL). In the assay on S. aureus ATCC43300 [2] (1 h at 20 °C in deionized water), the “MIC after incubation at 20 °C” value was determined as 0.114 µM (≈ 0.505 µg/mL). For the same molecule, in the assay with S. aureus ATCC43300 [2] (1 h at 40 °C in deionized water), the “MIC after incubation at 40 °C” value came to 0.114 µM (≈ 0.505 µg/mL). In addition, the “MIC after incubation at 60 °C” value with S. aureus ATCC43300 [2] (1 h at 60 °C in deionized water) is 0.114 µM (≈ 0.505 µg/mL). Also, the minimum inhibitory concentration (MIC) in the assay with S. pneumoniae CVCC2350 is 0.227 µM (≈ 1.01 µg/mL); in the assay with S. choleraesuis CVCC503, >7.273 µM; against S. pullorum CVCC1789 it was >7.273 µM; in the assay on S. typhimurium ATCC14028, >7.273 µM; against S. aureus ATCC25923 it was 0.028 µM (≈ 0.124 µg/mL); in the assay with S. aureus ATCC6538, 0.057 µM (≈ 0.253 µg/mL).
